From patent US7138231B2 (priority 2000, dated 2006)
Entries after “also recorded” stand apart in the source; their conditions may differ.

How the values were obtained:
[1] = system: HIV-1 patient-derived protease and reverse transcriptase segments (N88S in PR) in resistance test vectors; assay: Phenotypic drug susceptibility test with resistance test vectors from patient samples; assay type: cell-based; conditions: for Fold Change vs. reference: N88S
[2] = system: HIV-1 patient viruses with protease L90M; assay: Phenotypic susceptibility profiles of 58 patient virus samples with L90M, no other primary mutations; assay type: cell-based; conditions: for % FC > 2.5: IDV; for % w with IDV FC > 2.5: L90M
[3] = system: HIV-1 patient viruses with protease L90M; assay: Phenotypic susceptibility profiles of 333 patient virus samples with L90M (not 30 or 50); assay type: cell-based
[4] = system: HIV-1 protease site-directed mutants (N88S, L63P, V77I, M46L) in resistance test vector; assay: Phenotypic susceptibility assay of resistance test vectors with site-directed mutations in PR
Excerpt: The resistance test vectors containing a functional luciferase gene cassette were constructed and host cells were transfected with the resistance test vector DNA. […] The resistance test vector viral particles produced by transfecting the resistance test vector DNA into host cells, either in the presence or absence of protease inhibitors, were used to infect target host cells grown either in the absence of NRTI or NNRTI or in the presence of increasing concentrations of the drug. Luciferase activity in infected target host cells in the presence of drug was compared to the luciferase activity in infected target host cells in the absence of drug. […] The IC50 values were determined by plotting percent drug inhibition vs. log10 drug concentration.
Host cells were seeded in 10-cm-diameter dishes and were transfected one day after plating with resistance test vector plasmid DNA and the envelope expression vector. Transfections were performed using a calcium-phosphate co-precipitation procedure. The cell culture media containing the DNA precipitate was replaced with fresh medium, from one to 24 hours, after transfection. Cell culture media containing resistance test vector viral particles was harvested one to four days after transfection and was passed through a 0.45-mm filter before being stored at −80° C. HIV capsid protein (p24) levels in the harvested cell culture media were determined by an EIA method as described by the manufacturer (SIAC; Frederick, Md.). Before infection, target cells (293 and 293/T) were plated in cell culture media. Control infections were performed using cell culture media from mock transfections (no DNA) or transfections containing the resistance test vector plasmid DNA without the envelope expression plasmid. One to three or more days after infection the media was removed and cell lysis buffer (Promega) was added to each well. Cell lysates were assayed for luciferase activity. The inhibitory effect of the drug was determined using the following equation: % luciferase inhibition=[1−(RLUluc[drug]RLUluc)]×100 where RLUluc [drug] is the relative light unit of luciferase activity in infected cells in the presence of drug and RLUluc is the Relative Light Unit of luciferase activity in infected cells in the absence of drug. IC50 values were obtained from the sigmoidal curves that were generated from the data by plotting the percent inhibition of luciferase activity vs. the log10 drug concentration.
Mutations are introduced into the resistance test vector through any of the widely known methods for site-directed mutagenesis. […] A resistance test vector containing the specific mutation or group of mutations are then tested using the phenotypic susceptibility assay described above and the susceptibility profile is compared to that of a genetically defined wild-type (drug susceptible) resistance test vector which lacks the specific mutations.
Resistance test vectors were constructed containing the N88S mutation alone and in combination with other substitutions in PR (L63P, V77I and M46L) known to modulate the HIV susceptibility to PRIs. Mutations were introduced into the resistance test vector using the mega-primer PCR method for site-directed mutagenesis.

[5] = system: HIV-1 variants with protease substitutions; conditions: cited from earlier work

For CC(C)(C)NC(=O)[C@@H]1CN(Cc2cccnc2)CCN1C[C@@H](O)C[C@@H](Cc1ccccc1)C(=O)N[C@H]1c2ccccc2C[C@H]1O [indinavir], the “change in susceptibility” value ([1]; patient sample RTV-360) was “decrease”, the “change in susceptibility” value ([1]; patient sample RTV-627) was “decrease” and the “change in susceptibility” value ([1]; patient sample RTV-0732) was “decrease; also recorded: decreased susceptibility”. For the same molecule, the “change in susceptibility” value ([1]; patient sample RTV-0910) was “decrease”, the “change in susceptibility” value ([1]; patient sample RTV-1208) was “decrease” and the “change in susceptibility” value ([1]; patient sample RTV-3542) was “decrease”. The “change in susceptibility” value ([1]; patient sample RTV-3654) was “decrease”, the “% FC > 2.5” value ([2]; L90M + mutation at position 46) was 88% and the “% FC > 2.5” value ([2]; L90M + mutation at position 71) was 89%. For the same molecule, the “% FC > 2.5” value ([2]; L90M + mutation at position 71, listed as IDV) was 89%, the “% FC > 2.5” value ([2]; L90M + mutation at position 73) was 89% and the “% FC > 2.5” value ([2]; L90M + mutation at position 73, listed as IDV) was 89%. For the same molecule, the “% FC > 2.5” value ([2]; listed as 90: all viruses with L90M) was 69%, the “% w with IDV FC > 2.5” value ([2]; number of secondary mutations 0) was 69% and the “% w with IDV FC > 2.5” value ([2]; number of secondary mutations 1) was 70%. The “% w with IDV FC > 2.5” value ([2]; number of secondary mutations 2) was 70%, the “% w with IDV FC > 2.5” value ([2]; number of secondary mutations 3) was 80% and the “% w with IDV FC > 2.5” value ([2]; number of secondary mutations 4) was 87%. For the same molecule, the “% w with IDV FC > 2.5” value ([2]; number of secondary mutations 5) was 100%, the “% w with IDV FC > 2.5” value ([2]; number of secondary mutations 6) was 100% and the “wt % > 2.5” value ([3]; Indinavir FC>2.5, L90M, position 10 wild type) was 66.7%. The “wt % > 2.5” value ([3]; Indinavir FC>2.5, L90M, position 13 wild type) was 87.1%, the “wt % > 2.5” value ([3]; Indinavir FC>2.5, L90M, position 20 wild type) was 81.2% and the “wt % > 2.5” value ([3]; Indinavir FC>2.5, L90M, position 46 wild type) was 76.3%. The “wt % > 2.5” value ([3]; Indinavir FC>2.5, L90M, position 53 wild type) was 83.2%, the “wt % > 2.5” value ([3]; Indinavir FC>2.5, L90M, position 54 wild type) was 76.0% and the “wt % > 2.5” value ([3]; Indinavir FC>2.5, L90M, position 63 wild type) was 50.0%. For the same molecule, the “wt % > 2.5” value ([3]; Indinavir FC>2.5, L90M, position 71 wild type) was 69.0%, the “wt % > 2.5” value ([3]; Indinavir FC>2.5, L90M, position 73 wild type) was 80.6% and the “wt % > 2.5” value ([3]; Indinavir FC>2.5, L90M, position 74 wild type) was 87.0%. The “wt % > 2.5” value ([3]; Indinavir FC>2.5, L90M, position 82 wild type) was 78.3%, the “wt % > 2.5” value ([3]; Indinavir FC>2.5, L90M, position 84 wild type) was 79.0% and the “wt % > 2.5” value ([3]; Indinavir FC>2.5, L90M, position 95 wild type) was 83.5%. The “mt % > 2.5” value ([3]; Indinavir FC>2.5, listed as 90: all samples with L90M) was 84.7%, the “wt % > 10” value ([3]; Indinavir FC>10, L90M, position 10 wild type) was 23.1% and the “wt % > 10” value ([3]; Indinavir FC>10, L90M, position 20 wild type) was 47.2%. For the same molecule, the “wt % > 10” value ([3]; Indinavir FC>10, L90M, position 36 wild type) was 48.9%, the “wt % > 10” value ([3]; Indinavir FC>10, L90M, position 46 wild type) was 44.4% and the “wt % > 10” value ([3]; Indinavir FC>10, L90M, position 54 wild type) was 36.3%. The “wt % > 10” value ([3]; Indinavir FC>10, L90M, position 55 wild type) was 51.8%, the “wt % > 10” value ([3]; Indinavir FC>10, L90M, position 62 wild type) was 45.3% and the “wt % > 10” value ([3]; Indinavir FC>10, L90M, position 71 wild type) was 37.0%. For the same molecule, the “wt % > 10” value ([3]; Indinavir FC>10, L90M, position 72 wild type) was 50.0%, the “wt % > 10” value ([3]; Indinavir FC>10, L90M, position 74 wild type) was 57.3% and the “wt % > 10” value ([3]; Indinavir FC>10, L90M, position 82 wild type) was 39.9%. The “wt % > 10” value ([3]; Indinavir FC>10, L90M, position 84 wild type) was 46.3%, the “wt % > 10” value ([3]; Indinavir FC>10, L90M, position 85 wild type) was 52.3% and the “wt % > 10” value ([3]; Indinavir FC>10, L90M, position 95 wild type) was 51.6%. The “mt % > 10” value ([3]; Indinavir FC>10, listed as 90: all samples with L90M) was 53.8%, the “change in susceptibility compared to wild type control RTV” value (“change … to wild type control RTV” below) ([4]; L63P-N88S-RTV) was “decreased susceptibility” and the “change … to wild type control RTV” value ([4]; L63P-V77I-N88S-RTV) was “decrease in susceptibility; also recorded: resistance”. The “change … to wild type control RTV” value ([4]; M46L-L63P-N88S-RTV) was “slight decrease in susceptibility”, the “change … to wild type control RTV” value ([4]; M46L-L63P-V77I-N88S-RTV) was “decrease in susceptibility” and the loss of susceptibility ([5]; mutant HIV-1 clones with mutations at residues 46, 63, and 82) was “fourfold”. For the same molecule, the “loss of susceptibility compared with the wild type” value ([5]; selection in MT-4 cells, substitutions at residues 32, 46, 71, and 82) was 6.1 fold.
In the case of Cc1c(O)cccc1C(=O)N[C@@H](CSc1ccccc1)[C@H](O)CN1C[C@H]2CCCC[C@H]2C[C@H]1C(=O)NC(C)(C)C [nelfinavir], the “change in susceptibility” value ([1]; patient sample RTV-360) is reported as “decrease”, the “change in susceptibility” value ([1]; patient sample RTV-627) is reported as “decrease” and the “change in susceptibility” value ([1]; patient sample RTV-0732) is reported as “decrease; also recorded: decreased susceptibility”. For the same molecule, the “change in susceptibility” value ([1]; patient sample RTV-0910) was “decrease”, the “change in susceptibility” value ([1]; patient sample RTV-1208) was “decrease” and the “change in susceptibility” value ([1]; patient sample RTV-3542) was “decrease”. For the same molecule, the “change in susceptibility” value ([1]; patient sample RTV-3654) was “decrease”, the “change … to wild type control RTV” value ([4]; L63P-N88S-RTV) was “decreased susceptibility” and the “change … to wild type control RTV” value ([4]; L63P-V77I-N88S-RTV) was “decrease in susceptibility; also recorded: resistance”. For the same molecule, the “change … to wild type control RTV” value ([4]; L63P-V77I-RTV) was “slight decrease in susceptibility”, the “change … to wild type control RTV” value ([4]; M46L-L63P-N88S-RTV) was “decrease in susceptibility” and the “change … to wild type control RTV” value ([4]; M46L-L63P-V77I-N88S-RTV) was “decrease in susceptibility”. For the same molecule, the “change … to wild type control RTV” value ([4]; N88S-RTV) was “slightly less susceptible”, the “increase in 90% effective concentration” value ([5]; I84V and D30N single mutants and M46I/I84V double mutant of HIV-1 NL4-3) was “fivefold” and the “change in susceptibility” value ([5]; M46I, L63P, or A71V alone) was “no change in susceptibility”. The reduced susceptibility ([5]; variant P22, 22 serial passages of HIV-1 NL4-3) was “sevenfold” and the decreased susceptibility ([5]; variant P28, additional six passages) was 30 fold.
In the case of CC(C)c1nc(CN(C)C(=O)N[C@H](C(=O)N[C@@H](Cc2ccccc2)C[C@H](O)[C@H](Cc2ccccc2)NC(=O)OCc2cncs2)C(C)C)cs1 [ritonavir], the “Fold Change vs. reference” value ([1]; patient sample 360, prior PRI IDV, PR I13V, K20M, M36V, N37A, M46I, I62V, L63P, I93L) is reported as 1.49 fold, the “Fold Change vs. reference” value ([1]; patient sample 627, prior PRI IDV, PR I13I/V, E35D, M46L, L63P, I64V, I73V) is reported as 1.50 fold and the “Fold Change vs. reference” value ([1]; patient sample 0732, prior PRI NFV, PR K14R, I15V, K20T, E35D, M36I, R41K, I62V, L63Q) is reported as 1.72 fold. For the same molecule, the “Fold Change vs. reference” value ([1]; patient sample 0910, prior PRI NFV, PR M46I, L63P, V77I, I93I/L) was 1.85 fold, the “Fold Change vs. reference” value ([1]; patient sample 1208, prior PRI NFV, PR I62V, L63P, V77I) was 1.22 fold and the “Fold Change vs. reference” value ([1]; patient sample 3542, prior PRI IDV, PR I13V, K14R, N37D, M46I, L63P, I93L) was 3.36 fold. The “Fold Change vs. reference” value ([1]; patient sample 3654, PR I13V, R41K, M46I, L63P, V77I, I93L) was 1.95 fold, the “change in susceptibility” value ([1]; patient sample RTV-3542) was “decrease” and the “Percent of viruses with indicated primary mutation(s) with reduced susceptibility (fold change in IC50 > 2.5)” value ([3]; L90M) was 93.4%. The “Percent of viruses with indicated primary mutation(s) with reduced susceptibility (fold change in IC50 > 10)” value ([3]; L90M) was 66.1%, the “change … to wild type control RTV” value ([4]; N88S-RTV) was “more susceptible” and the “Fold Change vs. reference” value ([4]; site-directed mutation N88S) was 0.36 fold. The “Fold Change vs. reference” value ([4]; site-directed mutations L63P) was 1.27 fold, the “Fold Change vs. reference” value ([4]; site-directed mutations L63P, N88S) was 0.77 fold and the “Fold Change vs. reference” value ([4]; site-directed mutations L63P, V77I) was 1.73 fold. The “Fold Change vs. reference” value ([4]; site-directed mutations L63P, V77I, N88S) was 1.39 fold, the “Fold Change vs. reference” value ([4]; site-directed mutations M46L, L63P, N88S) was 0.85 fold and the “Fold Change vs. reference” value ([4]; site-directed mutations M46L, L63P, V77I, N88S) was 1.33 fold. The reduction in sensitivity ([5]; I84V substitution) was 10 fold, the level of resistance ([5]; I84V with addition of V82F) was “up to 20 fold” and the “change in drug susceptibility” value ([5]; M46I, L63P, A71V introduced into wild-type NL4-3) was “did not result in significant changes in drug susceptibility”.
